# Experimental data taken from patent publication US10562900B2 (Shanghai Haihe Pharmaceutical Co., Ltd., priority 2014, dated 2020).
# How the values were obtained:
# FGFR1 = FGFR1 (Homo sapiens (Human), UniProt P11362); experiment: FGFR1 kinase activity at the molecular level (ELISA, Poly(Glu,Tyr) 4:1 substrate); type: biochemical; conditions: kinase domain recombinant protein, 5 μM ATP
# Method: (§1) 100 μL/well of 2 mg/mL OPD developing solution (diluted with 0.1M citric acid-sodium citrate buffer containing 0.03% H2O2 (pH=5.4)), and reacted in dark for 1-10 minutes at 25° C.
# FGFR2 = FGFR2 (Homo sapiens (Human), UniProt P21802); experiment: FGFR2 kinase activity at the molecular level (ELISA, Poly(Glu,Tyr) 4:1 substrate); type: biochemical; conditions: kinase domain recombinant protein, 5 μM ATP
# Sequence of FGFR2 (P21802 481-770): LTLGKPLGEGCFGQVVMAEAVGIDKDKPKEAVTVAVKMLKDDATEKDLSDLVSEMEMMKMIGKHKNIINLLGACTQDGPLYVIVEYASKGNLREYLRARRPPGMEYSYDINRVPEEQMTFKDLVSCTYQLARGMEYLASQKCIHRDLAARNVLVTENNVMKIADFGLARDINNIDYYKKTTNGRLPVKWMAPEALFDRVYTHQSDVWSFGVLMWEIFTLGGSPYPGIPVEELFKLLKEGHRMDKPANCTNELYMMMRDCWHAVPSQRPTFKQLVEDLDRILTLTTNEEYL
# Method: as §1
# FGFR3 = FGFR3 (Homo sapiens (Human), UniProt P22607); experiment: FGFR3 kinase activity at the molecular level (ELISA, Poly(Glu,Tyr) 4:1 substrate); type: biochemical; conditions: kinase domain recombinant protein, 5 μM ATP
# Sequence of FGFR3 (P22607 472-761): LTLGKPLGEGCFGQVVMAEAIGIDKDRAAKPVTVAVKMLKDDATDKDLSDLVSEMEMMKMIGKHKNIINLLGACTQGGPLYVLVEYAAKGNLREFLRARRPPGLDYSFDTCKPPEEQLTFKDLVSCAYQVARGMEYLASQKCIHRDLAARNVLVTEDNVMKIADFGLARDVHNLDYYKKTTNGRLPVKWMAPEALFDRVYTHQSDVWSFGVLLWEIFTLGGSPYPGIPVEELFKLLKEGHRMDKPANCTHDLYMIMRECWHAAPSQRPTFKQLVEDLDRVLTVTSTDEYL
# Method: as §1
# [1] = test system: acute myelogenous leukemia cell strain KG1; experiment: Growth inhibition of FGFR1-dependent KG1 cells (CCK-8); type: cell-based; conditions: Homo sapiens, KG-1, 72 h treatment
# Method: The growth inhibition of the acute myelogenous leukemia cell strain KG1 (FGFR1-dependent tumor cell strain; the FGFR1 fusion protein in the cell was expressed in the cytoplasm; purchased from ATCC cell bank) by the compounds was detected with CCK-8 cell count kit (Dojindo). The specific steps are as follows: KG1 cells in logarithmic growth phase were seeded onto a 96-well culture plate in appropriate density, 90 ul per well. After overnight culture, different concentrations of compounds were added and the treatment continued for 72 h, and solvent control group (negative control) was set. After treatment for 72 h, the effect of the compounds on cell proliferation was observed by CCK-8 cell counting kit (Dojindo). 10 μL of CCK-8 reagent was added to each well. After incubated for 2-4 hours in a 37 □ incubator, read with SpectraMax 190 microplate reader at 450 nm wavelength. The inhibition rate (%) of the compounds on tumor cell growth was calculated using the following formula: Inhibition rate (%)=(OD negative control well-OD administered well)/OD negative control well×100%.
# Sequence of FGFR1 (P11362 478-767): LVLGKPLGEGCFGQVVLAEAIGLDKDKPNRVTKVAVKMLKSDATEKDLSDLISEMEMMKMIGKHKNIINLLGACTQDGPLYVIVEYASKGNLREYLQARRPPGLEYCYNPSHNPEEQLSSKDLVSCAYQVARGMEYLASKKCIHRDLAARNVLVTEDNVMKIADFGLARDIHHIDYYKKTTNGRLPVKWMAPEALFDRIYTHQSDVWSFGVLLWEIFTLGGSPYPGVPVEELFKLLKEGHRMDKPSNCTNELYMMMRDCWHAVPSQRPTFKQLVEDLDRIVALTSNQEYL
Compound,IC50 (FGFR1) [nM],IC50 (FGFR2) [nM],IC50 (FGFR3) [nM],IC50 [1] [nM]
"COc1cc(OC)c(Cl)c(-c2ccc3c(NC(=O)c4ccc(CN5CCN(C(C)=O)CC5)cc4)n[nH]c3c2)c1Cl [Example 19, 4-((4-acetyl-1-yl)methyl)-N-(6-(2,6-dichloro-3,5-dimethoxyphenyl)-1H-indazole-3-yl)benzamide]",< 100,< 100,< 100,200 to 1000
"CCN1CCN(c2ccc(C(=O)Nc3n[nH]c4cc(-c5c(Cl)c(OC)cc(OC)c5Cl)ccc34)cc2)CC1 [Example 18, N-(6-(2,6-dichloro-3,5-dimethoxyphenyl)-1H-indazole-3-yl)-4-(4-ethylpiperazine-1-yl)benzamide]",< 100,< 100,< 100,< 200
"COc1cc(OC)c(Cl)c(-c2ccc3c(NC(=O)c4ccc(N5CCOCC5)cc4)n[nH]c3c2)c1Cl [Example 17, N-(6-(2,6-dichloro-3,5-dimethoxyphenyl)-1H-indazole-3-yl)-4-morpholino benzamide]",< 100,< 100,< 100,200 to 1000
"COc1cc(OC)c(Cl)c(-c2ccc3c(NC(=O)c4ccc(N5CCN(C)CC5)cc4)n[nH]c3c2)c1Cl [Example 15, N-(6-(2,6-dichloro-3,5-dimethoxyphenyl)-1H-indazole-3-yl)-4-(4-methylpiperazine-1-yl)benzamide]",< 100,< 100,< 100,< 200
COc1cc(OC)c(Cl)c(-c2ccc3c(NC(=O)c4ccc(N5C[C@@H](C)N[C@@H](C)C5)cc4)n[nH]c3c2)c1Cl [Example 14],,,,< 200
"COc1cc(OC)c(Cl)c(-c2ccc3c(NC(=O)c4ccc(N5CCN(C)CC5)cc4)n[nH]c3n2)c1Cl [Example 63, N-(6-(2,6-dichloro-3,5-dimethoxyphenyl)-1H-pyrazolo [3,4-b]pyridin-3-yl)-4-(4-methylpiperazine-1-yl)benzamide]",< 100,< 100,< 100,
"COc1cc(OC)c(Cl)c(-c2ccc3c(NC(=O)c4ccc(N(C)C)cc4)n[nH]c3c2)c1Cl [Example 35, N-(6-(2,6-dichloro-3,5-dimethoxyphenyl)-1H-indazole-3-yl)-4-(dimethylamino)benzamide]",< 100,< 100,,
"COc1cc(OC)cc(-c2ccc3c(NC(=O)c4ccc(N5C[C@@H](C)N[C@@H](C)C5)cc4)n[nH]c3c2)c1 [Example 29, N-(6-(3,5-dimethoxyphenyl)-1H-indazole-3-yl)-4-((3R, 5S)-3,5-dimethylpiperazine-1-yl)benzamide]",< 100,< 100,,
"COc1cc(OC)c(Cl)c(-c2ccc3c(NC(=O)c4ccc(CN5CCN(C)CC5)cc4)n[nH]c3c2)c1Cl [Example 16, N-(6-(2,6-dichloro-3,5-dimethoxyphenyl)-1H-indazole-3-yl)-4-((4-methylpiperazine-1-yl)methyl)benzamide]",< 100,< 100,< 100,200 to 1000
"COc1cc(OC)c(Cl)c(-c2ccc3c(NC(=O)c4cccc(N5CCN(C)CC5)c4)n[nH]c3c2)c1Cl [Example 23, N-(6-(2,6-dichloro-3,5-dimethoxyphenyl)-1H-indazole-3-yl)-3-(4-methyl-1-yl)benzamide]",< 100,< 100,,
"CCN1CCN(c2ccc(C(=O)Nc3n[nH]c4nc(-c5c(Cl)c(OC)cc(OC)c5Cl)ccc34)cc2)CC1 [Example 65, N-(6-(2,6-dichloro-3,5-dimethoxyphenyl)-1H-pyrazolo [3,4-b]pyridin-3-yl)-4-(4-ethylpiperazine-1-yl)benzamide]",< 100,< 100,,
"COc1cc(OC)c(Cl)c(-c2ccc3c(NC(=O)c4ccc(N5CCN(CCO)CC5)cc4)n[nH]c3c2)c1Cl [Example 27, N-(6-(2,6-dichloro-3,5-dimethoxyphenyl)-1H-indazole-3-yl)-4-(4-(2-hydroxyethyl)piperazinyl)benzamide]",< 100,< 100,,
"COc1cc(OC)c(F)c(-c2ccc3c(NC(=O)c4ccc(N5CCN(C)CC5)cc4)n[nH]c3n2)c1F [Example 48, N-(6-(2,6-difluoro-3,5-dimethoxyphenyl)-1H-pyrazolo [3,4-b]pyridine-3-yl)-4-(4-methylpiperazine-1-yl)benzamide]",< 100,< 100,,

# Other lines, results leading:
IC50 (FGFR1) [nM],IC50 (FGFR2) [nM],IC50 (FGFR3) [nM],IC50 [1] [nM],Compound
< 100,< 100,,,COc1cc(OC)c(Cl)c(-c2ccc3c(NC(=O)c4ccc(N5C[C@@H](C)N[C@@H](C)C5)cc4)n[nH]c3n2)c1 [Example 66]
< 100,< 100,,,COc1cc(OC)c(Cl)c(-c2ncc3c(NC(=O)c4ccc(N5CCN(C)CC5)cc4)n[nH]c3n2)c1Cl [Example 83]
< 100,< 100,,,COc1cc(OC)c(Cl)c(-c2ccc3c(NC(=O)c4ccc(N5C[C@@H](C)N[C@@H](C)C5)nc4)n[nH]c3n2)c1Cl [Example 71]
< 100,< 100,,,"COc1cc(OC)c(Cl)c(-c2ccc3c(NC(=O)c4ccc(N5CCNC(C)(C)C5)nc4)n[nH]c3n2)c1Cl [Example 87, N-(6-(2,6-dichloro-3,5-dimethoxyphenyl)-1H-pyrazolo [3,4-b]pyridin-3-yl)-6-(3,3-dimethylpiperazine-1-yl)nicotinamide]"
< 100,< 100,,,"CCN1CCN(c2ccc(C(=O)Nc3n[nH]c4nc(-c5c(Cl)c(OC)cc(OC)c5Cl)ccc34)cn2)CC1 [Example 86, N-(6-(2,6-dichloro-3,5-dimethoxyphenyl)-1H-pyrazolo [3,4-b]pyridin-3-yl)-6-(4-ethylpiperazine-1-yl)nicotinamide]"
< 100,< 100,,,"COc1cc(OC)c(F)c(-c2ccc3c(NC(=O)c4ccc(N5CCC(N(C)C)C5)cc4)n[nH]c3c2)c1F (centres unmarked) [Example 98, N-(6-(2,6-difluoro-3,5-dimethoxyphenyl)-1H-indazole-3-yl)-4-(3-(dimethylamino)pyrrolidine-1-yl)benzamide]"
< 100,< 100,,,"COc1cc(OC)c(Cl)c(-c2ccc3c(NC(=O)c4ccc(N5CCN(C6CC6)CC5)nc4)n[nH]c3n2)c1Cl [Example 88, 6-(4-cyclopropylpiperazine-1-yl)-N-(6-(2,6-dichloro-3,5-dimethoxyphenyl)-1H-pyrazolo [3,4-b]pyridin-3-yl)nicotinamide]"
< 100,< 100,,,"COc1cc(OC)c(Cl)c(-c2ccc3c(NC(=O)c4cnc(N5CCN(C)CC5)nc4)n[nH]c3n2)c1Cl [Example 92, N-(6-(2,6-dichloro-3,5-dimethoxyphenyl)-1H-pyrazolo [3,4-b]pyridin-3-yl)-2-(4-methylpiperazine-1-yl)pyrimidine-5-formamide]"
< 100,< 100,,,"COc1cc(OC)c(F)c(-c2ccc3c(NC(=O)c4ccc(N5CCCN(C)CC5)cc4)n[nH]c3c2)c1F [Example 95, N-(6-(2,6-difluoro-3,5-dimethoxyphenyl)-1H-indazole-3-yl)-4-(4-methyl-1,4-diazepane-1-yl)benzamide]"
< 100,< 100,,,COc1cc(OC)c(Cl)c(-c2ccc3c(NC(=O)c4ccc(N5CCN(C6CC6)CC5)cc4)n[nH]c3n2)c1Cl [Example 89]
